Source: the NIST ThermoML archive (doi:10.1021/je700371w)

Conditions: Liquid, Closed cell (Static) method

Cc1cccnc1N [2-amino-3-methylpyridine]
Conditions	vapor or sublimation pressure [kPa]
328.7 K	0.098
329.84 K	0.108
336.23 K	0.165
344.13 K	0.271
349.18 K	0.368
354.89 K	0.515
357.64 K	0.598
359.93 K	0.69
363.55 K	0.82
368.61 K	1.08
374.67 K	1.47
387.23 K	2.67
390.85 K	3.13
398.46 K	4.32
405.57 K	5.82
411.35 K	7.34
415.63 K	8.67
421.5 K	10.75
425.85 K	12.61
428.75 K	13.95
431.43 K	15.29
435.66 K	17.74
439.42 K	20.12
443.51 K	23.01
447.94 K	26.5
448.95 K	27.3
450.76 K	28.88
451.84 K	29.81
454.19 K	32.09
455.25 K	33.15
456.78 K	34.61
457.95 K	36.08
460.15 K	38.48
461.72 K	40.22
469.63 K	50.38
478.22 K	63.87
484.84 K	76.42
490.45 K	87.65
495.13 K	99.74
496.05 K	101.44
497.73 K	105.38
498.8 K	108.53
499.88 K	111.35

O [water]
Conditions	vapor or sublimation pressure [kPa]
297.95 K	3.14
303.85 K	4.41
309.05 K	5.93
313.25 K	7.44
318.75 K	9.86
322.95 K	12.2
329.35 K	16.71
333.45 K	20.18
338.55 K	25.51
342.85 K	30.8
348.25 K	38.66
353.65 K	48.42
358.35 K	58.2
362.95 K	69.67
368.45 K	85.35
371.75 K	96.28
373.25 K	101.56
375.75 K	111.23
